Assay results published in patent US20260183295A1, “METHODS AND COMPOSITIONS FOR TREATING CANCER” (Onconova Therapeutics, Inc., priority 2022, published 2026).

Experiments:
HCC-1937 = test: MTT cell viability, 48 hours; format: cell-based; settings: Homo sapiens, HCC1937, 48 h, HCC-1937 (TNBC), read-out: 48 h-cell viability decrease
Protocol: (§1) A panel of […] breast cancer cell lines: T-47D, BT-474, MDA-MB-453, MDA-MB-468, HCC-1937, Hs578T, and MDA-MB-231, was treated for 48 hours with 5 μM Compound 1 and the cell viability was measured using the MTT assay. TABLE 6 summarizes the cell lines, and the change in viability after 48 hours of treatment with Compound 1.

BT-474 = test: MTT cell viability, 48 hours; format: cell-based; settings: Homo sapiens, BT-474 (HR+ HER2+), read-out: 48 h-cell viability decrease
Protocol: as §1

MDA-MB-468 = test: MTT cell viability, 48 hours; format: cell-based; settings: Homo sapiens, MDA-MB-468 (TNBC), read-out: 48 h-cell viability decrease
Protocol: as §1

BUB1 in MDA-MB-468 = test: BUB1 levels after 72 hours treatment; format: cell-based; settings: MDA-MB-468 (TNBC)
Protocol: (§2) The effects on the different treatment conditions on BUB 1 levels and PARP cleavage were also assessed. For both MNA-MB-231 cells, Compound 1 alone or with HCQ or SBI decreased BUB1 levels and cleaved PARP with […] decreases in cell viability observed for all treatments except Compound 1+SBI in MMA-MB-231 cells. The effects of Compound 1 with or without autophagy inhibitors was less pronounced in HCC-1937 cells.

BUB1 in MDA-MB-231 = test: BUB1 levels after 72 hours treatment; format: cell-based; settings: MDA-MB-231 (TNBC)
Protocol: as §2

MAN2A1 = molecular target: T1, MAN2A1 (Homo sapiens, UniProt Q16706); test: CETSA-MS, MDA-MB-231 intact cells; format: cell-based; settings: 2 μM and 20 μM
T1 construct: endogenous in cells; host or cells: MDA-MB-231
Protocol: (§3) TNBC MDA-MB-231 cells were grown at 37° C. in 5% CO2 and suspended in warm media and split into 4 equal volumes. […] Cells were incubated and then pelleted. Following pelleting, the cells were washed, resuspended, and heated in a thermal gradient. Following heating, the samples were flash frozen and lysed in lysis buffer, agitated by vortex, and sonicated prior to centrifugation. The supernatant was collected and denaturation buffer added. Cold acetone was then added to the cell samples, and protein collected by centrifugation. Pellets were then washed twice with cold acetone and the washed pellets prior to labeling.
(§4) The intact cell protein samples and lysate protein samples were then digested and labeled for mass spectrometry analysis according to the manufacturer's recommended protocols. Digested and labeled protein samples were analyzed by mass spectrometry proteomic analysis and the resulting protein targets were analyzed and plotted.

METTL18 = molecular target: T2, METTL18 (Homo sapiens, UniProt O95568); test: CETSA-MS, MDA-MB-231 intact cells; format: cell-based; settings: 2 μM and 20 μM
T2 construct: endogenous in cells; host or cells: MDA-MB-231
Protocol: as §3, §4

SNX30 = molecular target: T3, SNX30 (Homo sapiens, UniProt Q5VWJ9); test: CETSA-MS, MDA-MB-231 intact cells; format: cell-based; settings: 2 μM and 20 μM
T3 construct: endogenous in cells; host or cells: MDA-MB-231
Protocol: as §3, §4

MICALL2 = molecular target: T4, MICALL2 (Homo sapiens, UniProt Q8IY33); test: CETSA-MS, MDA-MB-231 intact cells; format: cell-based; settings: 2 μM and 20 μM
T4 construct: endogenous in cells; host or cells: MDA-MB-231
Protocol: as §3, §4

RBM34 = molecular target: T5, RBM34 (Homo sapiens, UniProt P42696); test: CETSA-MS, MDA-MB-231 intact cells; format: cell-based; settings: 2 μM and 20 μM
T5 construct: endogenous in cells; host or cells: MDA-MB-231
Protocol: as §3, §4

WTAP = molecular target: T6, WTAP (Homo sapiens, UniProt Q15007); test: CETSA-MS, MDA-MB-231 intact cells; format: cell-based; settings: 2 μM and 20 μM
T6 construct: endogenous in cells; host or cells: MDA-MB-231
Protocol: as §3, §4

FOSB = molecular target: T7, FOSB (Homo sapiens, UniProt P53539); test: CETSA-MS, MDA-MB-231 intact cells; format: cell-based; settings: 2 μM and 20 μM
T7 construct: endogenous in cells; host or cells: MDA-MB-231
Protocol: as §3, §4

PIP4K2B = molecular target: T8, PIP4K2B (Homo sapiens, UniProt P78356); test: CETSA-MS, MDA-MB-231 intact cells; format: cell-based; settings: 2 μM and 20 μM
T8 construct: endogenous in cells; host or cells: MDA-MB-231
Protocol: as §3, §4

STX5 = molecular target: T9, STX5 (Homo sapiens, UniProt Q13190); test: CETSA-MS, MDA-MB-231 intact cells; format: cell-based; settings: 2 μM and 20 μM
T9 construct: endogenous in cells; host or cells: MDA-MB-231
Protocol: as §3, §4

DECR1 = molecular target: T10, DECR1 (Homo sapiens, UniProt Q16698); test: CETSA-MS, MDA-MB-231 intact cells; format: cell-based; settings: 2 μM and 20 μM
T10 construct: endogenous in cells; host or cells: MDA-MB-231
Protocol: as §3, §4

CDC5L = molecular target: T11, CDC5L (Homo sapiens, UniProt Q99459); test: CETSA-MS, MDA-MB-231 intact cells; format: cell-based; settings: 2 μM and 20 μM
T11 construct: endogenous in cells; host or cells: MDA-MB-231
Protocol: as §3, §4

HNRNPA3 = molecular target: T12, HNRNPA3 (Homo sapiens, UniProt P51991); test: CETSA-MS, MDA-MB-231 intact cells; format: cell-based; settings: 2 μM and 20 μM
T12 construct: 148 targets unique to Compound 1 in MDA-MB-231 intact cells; endogenous in cells; host or cells: MDA-MB-231
Protocol: as §3, §4

RIPK 1 = molecular target: T13, RIPK 1 (Homo sapiens, UniProt Q13546); test: CETSA-MS, MDA-MB-231 intact cells; format: cell-based; settings: 2 μM and 20 μM
T13 construct: endogenous in cells; host or cells: MDA-MB-231
Protocol: as §3, §4

SCAF1 = molecular target: T14, SCAF1 (Homo sapiens, UniProt Q9H7N4); test: CETSA-MS, MDA-MB-231 intact cells; format: cell-based; settings: 2 μM and 20 μM
T14 construct: endogenous in cells; host or cells: MDA-MB-231
Protocol: as §3, §4

AIFM2 = molecular target: T15, AIFM2 (Homo sapiens, UniProt Q9BRQ8); test: CETSA-MS, MDA-MB-231 intact cells; format: cell-based; settings: 2 μM and 20 μM
T15 construct: endogenous in cells; host or cells: MDA-MB-231
Protocol: as §3, §4

PUS7L = molecular target: T16, PUS7L (Homo sapiens, UniProt Q9H0K6); test: CETSA-MS, MDA-MB-231 intact cells; format: cell-based; settings: 2 μM and 20 μM
T16 construct: endogenous in cells; host or cells: MDA-MB-231
Protocol: as §3, §4

COL2A1 = molecular target: T17, COL2A1 (Homo sapiens, UniProt P02458); test: CETSA-MS, MDA-MB-231 intact cells; format: cell-based; settings: 2 μM and 20 μM
T17 construct: endogenous in cells; host or cells: MDA-MB-231
Protocol: as §3, §4

GALNT7 = molecular target: T18, GALNT7 (Homo sapiens, UniProt Q86SF2); test: CETSA-MS, MDA-MB-231 intact cells; format: cell-based; settings: 2 μM and 20 μM
T18 construct: 148 targets unique to Compound 1 in MDA-MB-231 intact cells; endogenous in cells; host or cells: MDA-MB-231
Protocol: as §3, §4

AP2M1 = molecular target: T19, AP2M1 (Homo sapiens, UniProt Q96CW1); test: CETSA-MS, MDA-MB-231 intact cells; format: cell-based; settings: 2 μM and 20 μM
T19 construct: endogenous in cells; host or cells: MDA-MB-231
Protocol: as §3, §4

SIK2 = molecular target: T20, SIK2 (Homo sapiens, UniProt Q9H0K1); test: CETSA-MS, MDA-MB-231 intact cells; format: cell-based; settings: 2 μM and 20 μM
T20 construct: endogenous in cells; host or cells: MDA-MB-231
Protocol: as §3, §4

CLUH = molecular target: T21, CLUH (Homo sapiens, UniProt O75153); test: CETSA-MS, MDA-MB-231 intact cells; format: cell-based; settings: 2 μM and 20 μM
T21 construct: endogenous in cells; host or cells: MDA-MB-231
Protocol: as §3, §4

ADAR = molecular target: T22, ADAR (Homo sapiens, UniProt P55265); test: CETSA-MS, MDA-MB-231 intact cells; format: cell-based; settings: 2 μM and 20 μM
T22 construct: endogenous in cells; host or cells: MDA-MB-231
Protocol: as §3, §4

HNRNPR = molecular target: T23, HNRNPR (Homo sapiens, UniProt O43390); test: CETSA-MS, MDA-MB-231 intact cells; format: cell-based; settings: 2 μM and 20 μM
T23 construct: endogenous in cells; host or cells: MDA-MB-231
Protocol: as §3, §4

CCL5 = test: qPCR of T-cell recruiting chemokine mRNA, PyMT cells; format: cell-based, mouse
MDA-MB-231 cells = test: CytoTox-Glo cytotoxicity assay with or without bafilomycin A1, 2 days; format: cell-based; settings: 5 μM

T13 sequence (Q13546 whole entry): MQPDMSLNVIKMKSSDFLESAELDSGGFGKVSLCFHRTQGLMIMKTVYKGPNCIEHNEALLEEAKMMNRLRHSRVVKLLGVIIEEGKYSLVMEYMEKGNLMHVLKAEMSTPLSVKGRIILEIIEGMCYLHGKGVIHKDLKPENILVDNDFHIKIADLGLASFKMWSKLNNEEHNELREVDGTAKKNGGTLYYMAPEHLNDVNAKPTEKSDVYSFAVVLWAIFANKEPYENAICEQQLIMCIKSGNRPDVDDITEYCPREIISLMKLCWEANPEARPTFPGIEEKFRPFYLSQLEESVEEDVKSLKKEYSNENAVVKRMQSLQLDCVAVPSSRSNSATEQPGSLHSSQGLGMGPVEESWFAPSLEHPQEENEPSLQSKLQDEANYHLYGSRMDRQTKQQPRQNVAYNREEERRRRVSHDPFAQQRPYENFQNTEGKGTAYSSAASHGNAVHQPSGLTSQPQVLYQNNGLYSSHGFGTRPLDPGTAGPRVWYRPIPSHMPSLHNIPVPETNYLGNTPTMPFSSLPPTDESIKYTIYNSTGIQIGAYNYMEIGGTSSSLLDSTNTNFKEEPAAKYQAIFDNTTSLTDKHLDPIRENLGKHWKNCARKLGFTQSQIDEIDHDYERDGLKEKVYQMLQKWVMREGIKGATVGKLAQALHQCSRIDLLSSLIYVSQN
T3 sequence (Q5VWJ9 whole entry): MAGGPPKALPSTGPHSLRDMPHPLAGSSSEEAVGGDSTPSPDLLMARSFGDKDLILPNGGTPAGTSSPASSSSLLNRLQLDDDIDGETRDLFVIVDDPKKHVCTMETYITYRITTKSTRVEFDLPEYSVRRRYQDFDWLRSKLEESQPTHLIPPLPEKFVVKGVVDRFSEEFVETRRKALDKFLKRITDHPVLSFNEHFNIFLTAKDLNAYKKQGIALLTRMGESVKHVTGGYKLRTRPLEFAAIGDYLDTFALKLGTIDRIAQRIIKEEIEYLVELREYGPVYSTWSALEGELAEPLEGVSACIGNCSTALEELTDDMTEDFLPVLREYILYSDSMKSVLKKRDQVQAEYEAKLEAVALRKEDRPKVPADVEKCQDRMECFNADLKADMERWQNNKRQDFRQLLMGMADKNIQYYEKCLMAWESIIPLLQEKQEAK
T1 sequence (Q16706 whole entry): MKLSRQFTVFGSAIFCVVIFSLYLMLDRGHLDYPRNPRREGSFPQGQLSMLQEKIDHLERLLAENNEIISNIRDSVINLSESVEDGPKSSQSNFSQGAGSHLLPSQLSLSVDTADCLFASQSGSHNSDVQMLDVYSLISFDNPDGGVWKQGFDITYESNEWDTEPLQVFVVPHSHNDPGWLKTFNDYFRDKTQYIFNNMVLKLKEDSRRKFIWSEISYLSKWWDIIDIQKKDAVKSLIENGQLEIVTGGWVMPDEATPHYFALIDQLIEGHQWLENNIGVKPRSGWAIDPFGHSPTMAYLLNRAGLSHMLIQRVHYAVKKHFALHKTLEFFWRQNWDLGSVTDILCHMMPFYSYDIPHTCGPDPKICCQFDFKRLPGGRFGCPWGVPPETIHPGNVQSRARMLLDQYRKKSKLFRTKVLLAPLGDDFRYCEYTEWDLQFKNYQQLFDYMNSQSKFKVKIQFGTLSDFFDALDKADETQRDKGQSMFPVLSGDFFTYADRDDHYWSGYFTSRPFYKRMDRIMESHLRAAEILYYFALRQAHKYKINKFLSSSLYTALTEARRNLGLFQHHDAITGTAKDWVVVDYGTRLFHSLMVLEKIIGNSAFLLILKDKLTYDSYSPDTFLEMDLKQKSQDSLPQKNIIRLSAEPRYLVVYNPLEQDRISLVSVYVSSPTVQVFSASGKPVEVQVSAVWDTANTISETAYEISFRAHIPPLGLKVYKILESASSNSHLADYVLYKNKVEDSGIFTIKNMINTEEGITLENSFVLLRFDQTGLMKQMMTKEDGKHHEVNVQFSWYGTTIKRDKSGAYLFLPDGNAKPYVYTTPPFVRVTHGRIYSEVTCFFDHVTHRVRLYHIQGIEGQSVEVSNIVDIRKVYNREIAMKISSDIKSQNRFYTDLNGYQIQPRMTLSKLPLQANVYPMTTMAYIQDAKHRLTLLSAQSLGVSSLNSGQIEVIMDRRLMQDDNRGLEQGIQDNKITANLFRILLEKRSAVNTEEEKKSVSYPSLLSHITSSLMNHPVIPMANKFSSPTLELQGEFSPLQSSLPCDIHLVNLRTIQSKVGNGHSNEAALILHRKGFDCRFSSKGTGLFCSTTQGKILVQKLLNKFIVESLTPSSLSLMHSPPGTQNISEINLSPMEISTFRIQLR
T11 sequence (Q99459 whole entry): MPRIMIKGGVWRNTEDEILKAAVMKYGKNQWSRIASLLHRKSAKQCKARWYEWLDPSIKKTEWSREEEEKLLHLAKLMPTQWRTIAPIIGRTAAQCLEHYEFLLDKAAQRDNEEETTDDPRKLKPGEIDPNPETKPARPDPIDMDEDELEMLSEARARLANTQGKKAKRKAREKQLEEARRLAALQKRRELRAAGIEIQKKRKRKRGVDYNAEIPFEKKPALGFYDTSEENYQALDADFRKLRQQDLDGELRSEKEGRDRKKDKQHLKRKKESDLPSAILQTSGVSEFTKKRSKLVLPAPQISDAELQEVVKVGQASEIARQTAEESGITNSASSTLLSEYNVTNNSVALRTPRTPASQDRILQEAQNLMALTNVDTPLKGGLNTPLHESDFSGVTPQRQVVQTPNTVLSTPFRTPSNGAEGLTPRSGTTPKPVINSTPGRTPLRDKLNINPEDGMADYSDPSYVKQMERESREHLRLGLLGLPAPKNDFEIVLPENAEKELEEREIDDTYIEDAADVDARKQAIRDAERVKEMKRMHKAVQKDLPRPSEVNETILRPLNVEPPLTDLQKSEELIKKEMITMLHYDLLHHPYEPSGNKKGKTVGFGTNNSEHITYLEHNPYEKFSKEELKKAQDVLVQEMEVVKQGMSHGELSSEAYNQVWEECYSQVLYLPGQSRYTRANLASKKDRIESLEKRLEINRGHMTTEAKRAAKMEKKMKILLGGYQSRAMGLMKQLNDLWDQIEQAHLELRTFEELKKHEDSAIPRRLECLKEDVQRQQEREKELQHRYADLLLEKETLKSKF
T9 sequence (Q13190 whole entry): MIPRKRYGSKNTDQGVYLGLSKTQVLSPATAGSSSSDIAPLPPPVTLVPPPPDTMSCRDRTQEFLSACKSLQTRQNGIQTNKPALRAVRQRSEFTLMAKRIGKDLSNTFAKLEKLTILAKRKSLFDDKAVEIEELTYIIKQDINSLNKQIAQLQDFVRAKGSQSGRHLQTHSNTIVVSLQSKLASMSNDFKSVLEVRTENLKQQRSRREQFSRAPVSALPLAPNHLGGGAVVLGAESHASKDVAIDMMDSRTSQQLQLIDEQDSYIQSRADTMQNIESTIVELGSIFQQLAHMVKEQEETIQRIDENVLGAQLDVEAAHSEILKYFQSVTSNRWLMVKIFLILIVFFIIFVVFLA
T7 sequence (P53539 whole entry): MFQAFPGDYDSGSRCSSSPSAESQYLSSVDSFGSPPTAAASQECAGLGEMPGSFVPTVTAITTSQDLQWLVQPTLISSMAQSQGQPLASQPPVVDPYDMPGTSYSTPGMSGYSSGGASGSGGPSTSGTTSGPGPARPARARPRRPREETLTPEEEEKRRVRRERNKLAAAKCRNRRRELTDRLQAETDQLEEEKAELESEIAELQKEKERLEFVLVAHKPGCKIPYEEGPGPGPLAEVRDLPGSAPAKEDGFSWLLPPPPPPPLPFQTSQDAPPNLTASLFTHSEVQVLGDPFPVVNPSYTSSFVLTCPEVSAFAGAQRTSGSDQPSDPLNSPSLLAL
T17 sequence (P02458 182-1487): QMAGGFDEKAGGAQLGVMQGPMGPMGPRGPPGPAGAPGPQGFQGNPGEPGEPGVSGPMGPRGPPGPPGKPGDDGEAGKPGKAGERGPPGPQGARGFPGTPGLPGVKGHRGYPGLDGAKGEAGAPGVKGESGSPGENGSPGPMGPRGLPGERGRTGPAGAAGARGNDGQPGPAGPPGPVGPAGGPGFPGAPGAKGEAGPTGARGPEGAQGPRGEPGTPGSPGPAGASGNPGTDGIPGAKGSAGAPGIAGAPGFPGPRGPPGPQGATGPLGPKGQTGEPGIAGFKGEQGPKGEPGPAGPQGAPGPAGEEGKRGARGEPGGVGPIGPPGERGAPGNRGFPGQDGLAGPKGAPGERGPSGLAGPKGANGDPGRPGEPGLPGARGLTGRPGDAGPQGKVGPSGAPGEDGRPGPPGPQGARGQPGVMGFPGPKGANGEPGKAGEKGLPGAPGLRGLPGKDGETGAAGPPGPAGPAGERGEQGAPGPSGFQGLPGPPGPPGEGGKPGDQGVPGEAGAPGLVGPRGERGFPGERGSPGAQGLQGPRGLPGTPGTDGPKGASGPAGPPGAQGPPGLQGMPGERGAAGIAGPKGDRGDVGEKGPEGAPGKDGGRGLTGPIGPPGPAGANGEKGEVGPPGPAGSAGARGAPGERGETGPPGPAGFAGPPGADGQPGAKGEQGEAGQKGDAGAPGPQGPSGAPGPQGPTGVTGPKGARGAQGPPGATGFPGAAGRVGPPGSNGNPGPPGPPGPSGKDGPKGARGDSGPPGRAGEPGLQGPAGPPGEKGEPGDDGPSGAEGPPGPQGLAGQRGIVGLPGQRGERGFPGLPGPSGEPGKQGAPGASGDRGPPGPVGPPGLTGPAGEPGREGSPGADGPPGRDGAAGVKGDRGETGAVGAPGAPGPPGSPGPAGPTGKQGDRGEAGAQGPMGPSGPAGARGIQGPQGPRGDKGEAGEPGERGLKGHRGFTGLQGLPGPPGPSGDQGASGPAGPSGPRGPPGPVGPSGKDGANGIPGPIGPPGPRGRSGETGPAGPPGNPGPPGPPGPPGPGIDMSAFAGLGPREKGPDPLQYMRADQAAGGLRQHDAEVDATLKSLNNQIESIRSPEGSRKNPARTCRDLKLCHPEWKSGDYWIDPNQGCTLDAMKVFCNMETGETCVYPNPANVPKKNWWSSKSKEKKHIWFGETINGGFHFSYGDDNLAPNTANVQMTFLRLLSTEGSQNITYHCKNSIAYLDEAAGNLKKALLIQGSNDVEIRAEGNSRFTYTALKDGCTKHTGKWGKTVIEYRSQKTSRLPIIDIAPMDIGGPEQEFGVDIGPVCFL

CN1CCN(c2ccc(Nc3ncc4cc(C#N)c(=O)n(C5CCCC5)c4n3)cc2)CC1 [Compound 1, 8-cyclopentyl-2-((4-(4-methylpiperazin-1-yl)phenyl)amino)-7-oxo-7,8-dihydropyrido[2,3-d]pyrimidine-6-carbonitrile]
cytotoxicity at 5 µM (HCC-1937): 20%
cytotoxicity at 5 µM (BT-474): 50%
cytotoxicity at 5 µM (MDA-MB-468): 65%
BUB1 (BUB1 in MDA-MB-468): ↓
BUB1 (BUB1 in MDA-MB-231): ↓
Group (CETSA-MS thermal shift) (MAN2A1): Stabilization
Group (CETSA-MS thermal shift) (METTL18): Stabilization
Group (CETSA-MS thermal shift) (SNX30): Destabilization
Group (CETSA-MS thermal shift) (MICALL2): Destabilization
Group (CETSA-MS thermal shift) (RBM34): Stabilization
Group (CETSA-MS thermal shift) (WTAP): Stabilization
Group (CETSA-MS thermal shift) (FOSB): Destabilization
Group (CETSA-MS thermal shift) (PIP4K2B): Stabilization
Group (CETSA-MS thermal shift) (STX5): Stabilization
Group (CETSA-MS thermal shift) (DECR1): Destabilization
Group (CETSA-MS thermal shift) (CDC5L): Stabilization
Group (CETSA-MS thermal shift) (HNRNPA3): Stabilization
Group (CETSA-MS thermal shift) (RIPK 1): Stabilization
Group (CETSA-MS thermal shift) (SCAF1): Stabilization
Group (CETSA-MS thermal shift) (AIFM2): Destabilization
Group (CETSA-MS thermal shift) (PUS7L): Destabilization
Group (CETSA-MS thermal shift) (COL2A1): Stabilization
Group (CETSA-MS thermal shift) (GALNT7): Stabilization
Group (CETSA-MS thermal shift) (AP2M1): Destabilization
Group (CETSA-MS thermal shift) (SIK2): Stabilization
Group (CETSA-MS thermal shift) (CLUH): Stabilization
Group (CETSA-MS thermal shift) (ADAR): Stabilization
Group (CETSA-MS thermal shift) (HNRNPR): Stabilization
time of peak CCL5 mRNA levels (CCL5): ~48 h
CCL5 mRNA levels (CCL5; 24, 48 and 72 hours): large increase
cell death (Cell Tox Glo), compound alone (MDA-MB-231 cells): induced cell death
effect of bafilomycin A1 cotreatment on cell death (Cell Tox Glo) (MDA-MB-231 cells): enhanced
